Results: PMC11085077, “Designing Antitrypanosomal and Antileishmanial BODIPY Derivatives: A Computational and In Vitro Assessment” (Molecules, 2024)
Where “and” joins values, the source holds several entries; their conditions need not be identical. Identical values can stand only once.

Experiments:
L. major promastigotes = assay: Antileishmanial activity, MTT-based assay; type: cell-based, Leishmania major; conditions: for IC50: promastigotes, 72 h incubation, MTT, error reported as σ; for Selectivity Index (SI) L. major: SI = IC50 MRC-5/IC50 parasite; for antileishmanial activity (in words): classification used for docking analysis
Procedure: The in vitro antitrypanosomal and antileishmanial activity of the BODIPY derivatives were evaluated on the bloodstream form (BSF) of T. brucei and the promastigote form of L. major parasites. The toxicity of the compounds was determined after 72 h of incubation using the alamarBlue assay (for T. brucei) and the MTT assay (for L. major). The cytotoxicity of the compounds on a healthy human cell line (human lung fibroblast, MRC-5) was also determined after 72 h of incubation using the alamarBlue assay. The data were expressed as the half maximal inhibitory concentration (IC50). The selectivity index (SI) of each derivative was calculated by dividing the IC50 of MRC-5 cells into the IC50 of T. brucei or L. major. L. major (MHOM/IL/80/Friedlin) promastigotes were cultured at 28 °C, 5% CO2 in modified RPMI-1640 medium (Invitrogen, Carlsbad, CA, USA) supplemented with 10% hiFBS [49]. Parasites were maintained in culture in their […] growth phase (below 2 million parasites per mL for T. brucei and 10 million parasites per mL for L. major). The antileishmanial activity of the BODIPY derivatives was assessed using an MTT-based assay (Sigma-Aldrich, St. Louis, MO, USA). The stock solutions of the compounds were prepared in DMSO and the final DMSO percentage in each well was adjusted to be less than 1%. A total of 4 × 10^6 parasites per mL were incubated at 28 °C in 96-well plates (50 μL/well) alone or in the presence of an increasing concentration of compounds DMSO for 72 h. A total of 10 μL of MTT (5 mg/mL) were added to each well and parasites were incubated for 4 h at 28 °C. Finally, cells were lysed with 50 μL/well of 20% SDS. The plate was incubated at 37 °C for an extra hour and then, absorbance was measured at the Infinite F200 plate reader (TECAN Austria, GmbH, Grödig, Austria) at a wavelength of 540 nm. The IC50 was calculated as described above. Data are presented as the average of at least three independent measurements, all conducted in triplicate conditions.

[1] = test system: MRC-5 cell line (human lung fibroblast); assay: Cytotoxicity, alamarBlue assay; type: cell-based; conditions: 72 h incubation, error reported as σ
Procedure: The in vitro antitrypanosomal and antileishmanial activity of the BODIPY derivatives were evaluated on the bloodstream form (BSF) of T. brucei and the promastigote form of L. major parasites. The toxicity of the compounds was determined after 72 h of incubation using the alamarBlue assay (for T. brucei) and the MTT assay (for L. major). The cytotoxicity of the compounds on a healthy human cell line (human lung fibroblast, MRC-5) was also determined after 72 h of incubation using the alamarBlue assay. The data were expressed as the half maximal inhibitory concentration (IC50). The selectivity index (SI) of each derivative was calculated by dividing the IC50 of MRC-5 cells into the IC50 of T. brucei or L. major. MRC-5 cell line (human lung fibroblast) was grown in a monolayer at 37 °C, 5% CO2 in DMEM medium (1 g/L glucose) supplemented with 10% hiFBS, 100 U/mL penicillin, […] and 2 mM L-glutamine. Cytotoxicity was measured in MRC-5 through alamarBlue® assay (ThermoFisher Scientific). The stock solutions of the compounds were prepared in DMSO and the final DMSO percentage in each well was adjusted to be less than 1%. A total of 5 × 10^3 cells per mL were seeded in 96-well plates (100 μL/well) with 24 h of incubation time before compound addition at 37 °C, 5% CO2. Then, the compounds were added at increasing concentrations (from 0 to 100 μM) and the plates were incubated for 72 h. A total of 20 μL of resazurin solution (110 ng/mL) was added to each well and cells were incubated for 4 h. Then, cells were lysed with 50 μL/well of 3% SDS. The plate was incubated at 37 °C for an extra hour and then, the fluorescence intensity was measured at the Infinite F200 plate reader (TECAN Austria, GmbH), exciting at 550 nm and recording the emission at 590 nm. The results are expressed as the concentration of a compound that reduces cell growth by 50% versus untreated control cells (IC50). Data are presented as the average of at least three independent measurements, all conducted in triplicate conditions.

T. brucei BSF = assay: Antitrypanosomal activity, alamarBlue assay; type: cell-based, Trypanosoma brucei; conditions: for Selectivity Index (SI) T. brucei: SI = IC50 MRC-5/IC50 parasite; for IC50: bloodstream form, 72 h incubation, alamarBlue, error reported as σ; for antitrypanosomal activity (in words): classification used for docking analysis
Procedure: The in vitro antitrypanosomal and antileishmanial activity of the BODIPY derivatives were evaluated on the bloodstream form (BSF) of T. brucei and the promastigote form of L. major parasites. The toxicity of the compounds was determined after 72 h of incubation using the alamarBlue assay (for T. brucei) and the MTT assay (for L. major). The cytotoxicity of the compounds on a healthy human cell line (human lung fibroblast, MRC-5) was also determined after 72 h of incubation using the alamarBlue assay. The data were expressed as the half maximal inhibitory concentration (IC50). The selectivity index (SI) of each derivative was calculated by dividing the IC50 of MRC-5 cells into the IC50 of T. brucei or L. major.
T. brucei (Lister 427, antigenic type MiTat 1.2, clone 221a, bloodstream forms, “single marker” S427 (S16)) were cultured at 37 °C, 5% CO2 in HMI-9 medium supplemented with 10% heat-inactivated fetal bovine serum (hiFBS, Invitrogen, Carlsbad, CA, USA), as previously described.
The antitrypanosomal activity of the BODIPY derivatives was determined by the alamarBlue® assay (ThermoFisher Scientific, Waltham, MA, USA). The stock solutions of the compounds were prepared in DMSO and the final DMSO percentage in each well was adjusted to be less than 1%. A total of 2 × 10^4 parasites per mL were incubated at 37 °C, 5% CO2 in 96-well plates (50 μL/well) alone or in the presence of an increasing concentration of compounds for 72 h. A total of 20 μL of resazurin solution (110 ng/mL) was then added to each well, and the parasites were incubated for 4 h at 37 °C. Finally, cells were lysed with 50 μL per well of SDS 3%. The plate was incubated at 37 °C for an extra hour and then, fluorescence intensity was measured with an Infinite F200 plate reader (Tecan Austria, GmbH, Grödig, Austria), exciting at 550 nm and recording the emission at 590 nm. The results are expressed as the concentration of a compound that reduces cell growth by 50% versus untreated control cells (IC50). Data are presented as the average of at least three independent measurements, all conducted in triplicate conditions.

[2] = MRC5, healthy human lung fibroblasts

| SMILES | IC50 (L. major promastigotes; Leishmania major) [µM] | Selectivity Index (SI) L. major (L. major promastigotes) | IC50 [1, 2] [µM] | Selectivity Index (SI) T. brucei (T. brucei BSF) | IC50 (T. brucei BSF; Trypanosoma brucei) [µM] | IC50 (L. major promastigotes) [µM] | IC50 ([1]; healthy human lung fibroblasts) | IC50 (T. brucei BSF) [µM] | antitrypanosomal activity (in words) (T. brucei BSF) | antileishmanial activity (in words) (L. major promastigotes) |
| --- | --- | --- | --- | --- | --- | --- | --- | --- | --- | --- |
| CC1=C(C=O)C(C)=[N+]2C1=C(c1ccc(N(c3ccccc3)c3ccc(C=O)cc3)cc1)c1c(C)cc(C)n1[B-]2(F)F [Compound 3d] | > 100 | <0.87 | 87.1 ± 3.28 | 2.28 | 38.3 ± 0.93 | – | – | – | – | – |
| CCn1c2ccccc2c2cc(C3=C4C(C)=CC(C)=[N+]4[B-](F)(F)n4c(C)cc(C)c43)ccc21 [Compound 1e] | – | <0.89 | – | 4.77 | – | > 100 | 88.9 ± 3.82 µM | 18.7 ± 2.67 | – | – |
| CC1=CC(C)=[N+]2C1=C(c1ccc3ccccc3n1)c1c(C)cc(C)n1[B-]2(F)F [Compound 1h] | – | <0.96 | – | 1.24 | – | > 100 | 95.6 ± 3.45 µM | 77.4 ± 3.46 | – | – |
| CC1=CC(C)=[N+]2C1=C(c1cc3sccc3s1)c1c(C)cc(C)n1[B-]2(F)F [Compound 1i] | – | 1.05 | – | 1.58 | – | 92.2 ± 10 | 96.8 ± 4.5 µM | 61.5 ± 10.9 | – | – |
| CC1=C(c2nc3ccccc3[nH]2)C(C)=[N+]2C1=C(c1ccccc1)c1c(C)cc(C)n1[B-]2(F)F [Compound 3a] | – | – | – | 11.38 | – | > 100 | 63 µM and 62.6 µM | 5.5 ± 0.21 | present antitrypanosomal activity | – |
| CC1=CC(C)=[N+]2C1=C(c1ccc(N(C)C)c3ccccc13)c1c(C)c(C=O)c(C)n1[B-]2(F)F [Compound 2b] | – | 4.39 | – | 24 and 24.34 | – | 15.8 ± 1.31 | 69.1 ± 4.9 µM | 2.84 ± 0.04 | present antitrypanosomal activity | present antileishmanial activity |
| CC1=CC(C)=[N+]2C1=C(c1ccccc1)c1c(C)cc(C)n1[B-]2(F)F [Compound 1a] | – | 3.42 | – | 1.76 | – | 19.7 ± 3.94 | 67.2 ± 4.39 µM | 38.2 ± 7.29 | – | – |
| CC1=CC(C)=[N+]2C1=C(c1ccc(N(c3ccccc3)c3ccccc3)cc1)c1c(C)cc(C)n1[B-]2(F)F [Compound 1d] | – | <0.91 | – | 1.87 | – | > 100 | 91.3 ± 6.31 µM | 48.8 ± 3.29 | – | – |
| CC1=C(C=O)C(C)=[N+]2C1=C(c1c3ccccc3cc3ccccc13)c1c(C)c(C=O)c(C)n1[B-]2(F)F [Compound 3c] | 3.13 ± 0.13 | 6.91 | 21.7 ± 3.46 | 1.53 | 14.2 ± 0.31 | – | – | – | present antitrypanosomal activity | present antileishmanial activity |
| CC1=C(C=O)C(C)=[N+]2C1=C(c1ccccc1)c1c(C)cc(C)n1[B-]2(F)F [Compound 2a] | – | <0.91 | – | 1.22 | – | > 100 | 91.33 ± 0.66 µM | 74.7 ± 6.93 | – | – |
| CC1=C(C=O)C(C)=[N+]2C1=C(c1cccs1)c1c(C)cc(C)n1[B-]2(F)F [Compound 2f] | – | 4.10 | – | 6.54 | – | 19.7 ± 3.21 | 80.9 ± 1.06 µM | 12.4 ± 4.02 | present antitrypanosomal activity | does not present antileishmanial activity |
| CC1=CC(C)=[N+]2C1=C(c1nccs1)c1c(C)cc(C)n1[B-]2(F)F [Compound 1g] | – | <0.83 | – | 1.49 | – | > 100 | 82.8 ± 1.2 µM | 55.7 ± 1.65 | – | – |
| CC1=C(C=O)C(C)=[N+]2C1=C(c1ccc(N(c3ccccc3)c3ccccc3)cc1)c1c(C)cc(C)n1[B-]2(F)F [Compound 2d] | – | <0.81 | – | 3.56 | – | > 100 | 81.1 ± 3.9 µM | 22.7 ± 1.88 | – | – |
| CCn1c2ccccc2c2cc(C3=C4C(C)=C(C=O)C(C)=[N+]4[B-](F)(F)n4c(C)cc(C)c43)ccc21 [Compound 2e] | – | 4.33 | – | 5.89 | – | 20.7 ± 1.79 | 89.7 ± 9.08 µM | 15.2 ± 0.86 | – | – |
| CC1=CC(C)=[N+]2C1=C(c1ccc(N(C)C)c3ccccc13)c1c(C)c(-c3nc4ccccc4[nH]3)c(C)n1[B-]2(F)F [Compound 3b] | – | >1.18 | – | >3.59 | – | 84.39 ± 0.32 | > 100 µM | 27.9 ± 5.42 | – | – |
| CC1=CC(C)=[N+]2C1=C(c1c3ccccc3cc3ccccc13)c1c(C)cc(C)n1[B-]2(F)F [Compound 1c] | – | 18 | – | 1.07 | – | 5.41 ± 0.43 | 82.14 ± 0.03 µM | 77.1 ± 2.98 | – | present antileishmanial activity |
| CC1=CC(C)=[N+]2C1=C(c1cccs1)c1c(C)cc(C)n1[B-]2(F)F [Compound 1f] | – | 0.90 | – | 1.57 | – | 64.5 ± 8.43 | 58 ± 4.76 µM | 36.9 ± 7.43 | – | – |
| CC1=CC(C)=[N+]2C1=C(c1ccc(N(C)C)c3ccccc13)c1c(C)cc(C)n1[B-]2(F)F [Compound 1b] | – | 16 and 15.93 | – | 4.21 | – | 4.84 ± 1.56 | 76.8 ± 5.33 µM | 18.2 ± 3.63 | – | present antileishmanial activity |
